“And” between values parts separate entries of the source, which are not always exact repeats. Equal values may be shown once.
Row | Compound | melting point
1 | CN1C(CCl)Nc2cc(Cl)c(S(N)(=O)=O)cc2S1(=O)=O (configuration not stated) [methyclothiazide] | 225 °C
2 | COC(=O)n1c(C)c(C)c2ccccc21 [methyl 2,3-dimethyl-1H-indole-1-carboxylate] | 50 °C
3 | CCC1=Nc2ccccc2C1(C)C(=O)OC (configuration not stated) [methyl 2-ethyl-3-methyl-3H-indole-3-carboxylate] | 72 °C
4 | COC(=O)c1ccc(OC)cc1O [methyl 2-hydroxy-4-methoxybenzoate] | 48 °C
5 | COC(=O)c1ccccc1[N+](=O)[O-] [methyl 2-nitrobenzoate] | -13 °C
6 | COC(=O)c1ccc(-c2cccc([N+](=O)[O-])c2)cc1 [methyl 3'-nitrobiphenyl-4-carboxylate] | 143 °C
7 | COC(=O)C1=Nc2ccccc2C1(C)C [methyl 3,3-dimethyl-3H-indole-2-carboxylate] | 75 °C
8 | COC(=O)c1ccc(C)c(C)c1 [methyl 3,4-dimethylbenzoate] | 36 °C
9 | COC(=O)c1cccc(N)c1 [methyl 3-aminobenzoate] | 51 °C
10 | COC(=O)c1ccc(OC)c(C#N)c1 [methyl 3-cyano-4-methoxybenzoate] | 122 °C
11 | COC(=O)c1ccc(C#N)cc1 [methyl 4-cyanobenzoate] | 67 °C
12 | COC(=O)c1ccc(F)cc1O [methyl 4-fluorosalicylate] | 39 °C
13 | COC(=O)c1ccc(C=O)cc1 [methyl 4-formylbenzoate] | 61 °C
14 | COC(=O)c1ccc(I)c([N+](=O)[O-])c1 [methyl 4-iodo-3-nitrobenzoate] | 103 °C
15 | COC(=O)c1ccc(I)cc1 [methyl 4-iodobenzoate] | 115 °C
16 | COC(=O)c1ccc([N+](=O)[O-])cc1 [methyl 4-nitrobenzoate] | 96 °C
17 | COC(=O)CCC(C)C1CCC2C3C(=O)C(Br)C4CCCCC4(C)C3CCC12C (configuration not stated) [methyl 6-bromo-7-oxocholan-24-oate] | 124 °C
18 | COC(=O)CCC(C)C1CCC2C3C(OC(C)=O)C(Br)C4CCCCC4(C)C3CCC12C (configuration not stated) [methyl 7-(acetyloxy)-6-bromocholan-24-oate] | 159 °C
19 | COC(=O)[C@H](C)O [methyl (S)-lactate] | -44 °C
20 | COC(C)=O [methyl acetate] | -98 °C
21 | CO[C@H]1O[C@H](CO)[C@@H](O)[C@H](O)[C@H]1O [methyl alpha-d-glucopyranoside] | 169 °C
22 | COC(=O)c1ccccc1N [methyl anthranilate] | 24 °C

Row | Compound | melting point
23 | CCCCCCCCCCCCCCCCCCCC(=O)OC [methyl eicosanoate] | 48 °C
24 | CCCCCC(=O)OC [methyl hexanoate] | -71 °C
25 | COC(=O)c1cc2ccccc2cn1 [methyl isoquinoline-3-carboxylate] | 86 °C
26 | CCCCCCCCCCCCCCCC(=O)OC [methyl palmitate] | 31 °C
27 | COC(=O)c1ccc2nccnc2c1 [methyl quinoxaline-6-carboxylate] | 98 °C
28 | COC(=O)c1ccccc1O [methyl salicylate] | -9 °C
29 | CCCCCCCCCCCCCCCCCC(=O)OC [methyl stearate] | 40 °C
30 | COC(=O)c1ccccc1OC(C)=O [methyl_2-acetoxybenzoate] | 52 °C
31 | COC(=O)c1cc(OC)cc(OC)c1 [methyl_3,5-dimethoxybenzoate] | 43 °C
32 | COC(=O)c1ccc(C(C)=O)cc1 [methyl_4-acetylbenzoate] | 95 °C
33 | COC(=O)c1ccc(Cl)cc1 [methyl_4-chlorobenzoate] | 44 °C
34 | COC(=O)c1ccc(C#N)cc1 [methyl_4-cyanobenzoate] | 62 °C
35 | COS(=O)(=O)c1ccc(C)cc1 [methyl_p-toluenesulfonate] | 79 °C
36 | CC1CCCCC1 [methylcyclohexane] | -126 °C
37 | CC1CCCC1 [methylcyclopentane] | -142 °C
38 | CCc1cccc(C)c1N(C(=O)CCl)C(C)COC (configuration not stated) [metolachlor] | 25 °C
39 | COc1ccc2c(c1)c1c3n2CCN(C)C3=NCC1 [metralindole] | 164 °C
40 | Cc1ncc([N+](=O)[O-])n1CCO [metronidazole] | 160 °C
41 | Nc1cc(N2CCCCC2)nc(N)[n+]1[O-] [minoxidil] | 248 °C
42 | CCc1c(C)[nH]c2c1C(=O)C(CN1CCOCC1)CC2 (configuration not stated) [molindone] | 180 °C
43 | CCCCCCCCCCCCOP(=O)(O)O [mono-n-dodecyl phosphate] | 42 °C
44 | CN(C)C(=O)Nc1ccc(Cl)cc1 [monuron] | 172 °C and 174 °C

Row | Compound | melting point
45 | CCOC(=O)Nc1ccc2c(c1)N(C(=O)CCN1CCOCC1)c1ccccc1S2 [moricizine] | 156 °C
46 | CCc1cc2cc(OC)c(OC)cc2c(Cc2ccccc2)n1 [moxaverine] | 78 °C
47 | CC(C)(C)NCC(O)COc1cccc2c1C[C@H](O)[C@H](O)C2 (some centres not stated) [nadolol] | 125 °C
48 | c1ccc2cc3cc4ccccc4cc3cc2c1 [naphthacene] | 357 °C
49 | c1ccc2ccccc2c1 [naphthalene] | 83 °C and 80.2 °C
50 | NC(=O)c1cccnc1 [nicotinamide] | 130 °C
51 | O=[N+]([O-])c1ccccc1 [nitrobenzene] [listing 1 of 2 here] | 6 °C
52 | O=[N+]([O-])c1ccccc1 [nitrobenzene] [listing 2 of 2 here] | 6 °C
53 | O=[N+]([O-])c1ccccc1O [nitrophenol] | 45 °C
54 | CCCCCCCCCC#N [nonyl_cyanide] | -15 °C
55 | C[C@H](Cc1ccc(O)c(O)c1)[C@@H](C)Cc1ccc(O)c(O)c1 [nordihydroguaiaretic acid] | 186 °C
56 | CCn1cc(C(=O)O)c(=O)c2cc(F)c(N3CCNCC3)cc21 [norfloxacin] | 220 °C
57 | Cc1ccccc1N [o-Toluidine] | -16 °C
58 | CC(=O)c1ccccc1N [o-aminoacetophenone] | 20 °C
59 | NC(=O)c1ccccc1N [o-aminobenzamide] | 113 °C
60 | COc1ccccc1C=O [o-anisaldehyde] | 38 °C
61 | OCc1ccccc1Br [o-bromobenzyl alcohol] | 81 °C
62 | NC(=O)c1ccccc1Cl [o-chlorobenzamide] | 143 °C
63 | Clc1ccccc1I [o-chloroiodobenzene] | 1 °C
64 | Oc1ccccc1Cl [o-chlorophenol] | 8 °C
65 | N#Cc1ccccc1C(N)=O [o-cyanobenzamide] | 172 °C
66 | N#CCc1ccccc1O [o-hydroxy_phenylacetonitrile] | 122 °C

Row | Compound | melting point
67 | Nc1ccccc1[N+](=O)[O-] [o-nitroaniline] | 73 °C
68 | O=Cc1ccccc1[N+](=O)[O-] [o-nitrobenzaldehyde] | 46 °C
69 | O=[N+]([O-])c1ccccc1O [o-nitrophenol] | 45 °C
70 | O=C(O)c1ccccc1-c1ccccc1 [o-phenylbenzoic_acid] | 115 °C
71 | Nc1ccccc1N [o-phenylenediamine] | 102 °C
72 | c1ccc(-c2ccccc2-c2ccccc2)cc1 [o-terphenyl] | 57 °C
73 | Cc1ccccc1N [o-toluidine] | -24 °C
74 | COc1cccc(C=O)c1O [o-vanillin] | 44.5 °C
75 | C=Cc1ccccc1O [o-vinyl_phenol] | 29 °C
76 | CCCCCCCC#N [octanenitrile] | -45 °C
77 | c1ccc([Si]2(c3ccccc3)O[Si](c3ccccc3)(c3ccccc3)O[Si](c3ccccc3)(c3ccccc3)O[Si](c3ccccc3)(c3ccccc3)O2)cc1 [octaphenylcyclotetrasiloxane] | 201 °C
78 | COc1ccc2[nH]c(S(=O)Cc3ncc(C)c(OC)c3C)nc2c1 (configuration not stated) [omeprazole] | 156 °C
79 | O=C(O)c1cc(=O)[nH]c(=O)[nH]1 [orotic acid, anhydrous] | 346 °C
80 | O=C(O)c1cc(=O)[nH]c(=O)[nH]1 [orotic acid] [listing 1 of 2 here] | 346 °C
81 | O=C(O)c1cc(=O)[nH]c(=O)[nH]1 [orotic acid] [listing 2 of 2 here] | 345 °C
82 | CC(C)NCC1CCc2cc(CO)c([N+](=O)[O-])cc2N1 (configuration not stated) [oxamniquine] | 148 °C
83 | CCCOc1ccc2[nH]c(NC(=O)OC)nc2c1 [oxibendazole] | 230 °C
84 | Brc1ccc(-c2ccc(Br)cc2)cc1 [p,p'-dibromobiphenyl] | 170 °C
85 | ON=Cc1ccc(O)cc1 [p-Hydroxybenzaldehyde oxime] | 112 °C
86 | CC(=O)Oc1ccc(C(C)=O)cc1 [p-acetoxy_acetophenone] | 54 °C
87 | CC(=O)Oc1ccc(CC#N)cc1 [p-acetoxy_phenylacetonitrile] | 50 °C
88 | CC(=O)Oc1ccc(C(N)=O)cc1 [p-acetoxybenzamide] | 179 °C

Row | Compound | melting point
89 | CC(=O)c1ccc(C#N)cc1 [p-acetyl_benzonitrile] | 59 °C
90 | C=Cc1ccc(C(C)=O)cc1 [p-acetylstyrene] | 37 °C
91 | Nc1ccc(C(=O)O)cc1 [p-aminobenzoic_acid] | 189 °C
92 | Nc1ccc(O)cc1 [p-aminophenol] | 189 °C
93 | COc1ccc(C=O)cc1 [p-anisaldehyde] | 1 °C
94 | COc1ccc(N)cc1 [p-anisidine] [listing 1 of 2 here] | 58 °C
95 | COc1ccc(N)cc1 [p-anisidine] [listing 2 of 2 here] | 59 °C
96 | N#Cc1ccc(Cc2ccccc2)cc1 [p-benzyl_benzonitrile] | 51 °C
97 | O=Cc1ccc(Br)cc1 [p-bromobenzaldehyde] | 57 °C
98 | O=C(O)c1ccc(Br)cc1 [p-bromobenzoic acid] | 252 °C
99 | O=C(O)c1ccc(Br)cc1 [p-bromobenzoic_acid] | 253 °C
100 | CC(C)c1ccc(Cl)cc1 [p-chlorocumene] | -12 °C
101 | N#Cc1ccc(CO)cc1 [p-cyano_benzyl_alcohol] | 42 °C
102 | CC(C)(C)c1ccc(C(C)(C)C)cc1 [p-di-tert-butylbenzene] | 74 °C
103 | Clc1ccc(Cl)cc1 [p-dichlorobenzene] | 53 °C
104 | O=Cc1ccc(I)cc1 [p-iodobenzaldehyde] | 78 °C
105 | Oc1ccc(I)cc1 [p-iodophenol] | 94 °C
106 | CC(=O)c1ccc([N+](=O)[O-])cc1 [p-nitroacetophenone] | 80 °C
107 | O=Cc1ccc([N+](=O)[O-])cc1 [p-nitrobenzaldehyde] | 108 °C
